Read-outs that look alike come from different tables or passages of the source.
Key:
Test in all cases: biochemical
Format in all cases: binding
[1] = molecular target: 468 kinases (Homo sapiens, UniProt Q99755); conditions: PIP5K1A; read-out: % Inhibition @ 100 nM
[2] = molecular target: 468 kinases (Homo sapiens, UniProt P29322); conditions: EPHA8; read-out: % Inhibition @ 100 nM
[3] = molecular target: 468 kinases (Homo sapiens, UniProt Q05655); conditions: PRKCD; read-out: % Inhibition @ 100 nM
[4] = molecular target: 468 kinases (Homo sapiens, UniProt Q96RR4); conditions: CAMKK2; read-out: % Inhibition @ 100 nM
[5] = molecular target: 468 kinases (Homo sapiens, UniProt P68400); conditions: CSNK2A1; read-out: % Inhibition @ 100 nM
[6] = molecular target: 468 kinases (Homo sapiens, UniProt P37023); conditions: ACVRL1; read-out: % Inhibition @ 100 nM
[7] = molecular target: 468 kinases (Homo sapiens, UniProt Q92630); conditions: DYRK2; read-out: % Inhibition @ 100 nM
[8] = molecular target: 468 kinases (Homo sapiens, UniProt O15111); conditions: IKK-alpha; read-out: % Inhibition @ 100 nM
[9] = molecular target: 468 kinases (Homo sapiens, UniProt Q52WX2); conditions: SBK1; read-out: % Inhibition @ 100 nM
[10] = molecular target: 468 kinases (Homo sapiens, UniProt Q96GD4); conditions: AURKB; read-out: % Inhibition @ 100 nM
[11] = molecular target: 468 kinases (Homo sapiens, UniProt Q96PY6); conditions: NEK1; read-out: % Inhibition @ 100 nM
[12] = molecular target: 468 kinases (Homo sapiens, UniProt Q04912); conditions: MST1R; read-out: % Inhibition @ 100 nM
[13] = molecular target: 468 kinases (Homo sapiens, UniProt Q13523); conditions: PRP4; read-out: % Inhibition @ 100 nM
[14] = molecular target: 468 kinases (Homo sapiens, UniProt P00533, L858R); conditions: EGFR(L858R); read-out: % Inhibition @ 100 nM
[15] = molecular target: 468 kinases (Homo sapiens, UniProt Q13873); conditions: BMPR2; read-out: % Inhibition @ 100 nM
[16] = molecular target: 468 kinases (Homo sapiens, UniProt P00533, DEL746-750); conditions: EGFR(E746-A750del); read-out: % Inhibition @ 100 nM
[17] = molecular target: 468 kinases (Homo sapiens, UniProt O00506); conditions: YSK1; read-out: % Inhibition @ 100 nM
[18] = molecular target: 468 kinases (Homo sapiens, UniProt Q9NYY3); conditions: PLK2; read-out: % Inhibition @ 100 nM
[19] = molecular target: 468 kinases (Homo sapiens, UniProt P48736); conditions: PIK3CG; read-out: % Inhibition @ 100 nM
[20] = molecular target: 468 kinases (Homo sapiens, UniProt Q14012); conditions: CAMK1; read-out: % Inhibition @ 100 nM
[21] = molecular target: 468 kinases (Homo sapiens, UniProt P41743); conditions: PRKCI; read-out: % Inhibition @ 100 nM
[22] = molecular target: 468 kinases (Homo sapiens, UniProt Q02779); conditions: MLK2; read-out: % Inhibition @ 100 nM
[23] = molecular target: 468 kinases (Homo sapiens, UniProt Q00535); conditions: CDK5; read-out: % Inhibition @ 100 nM
[24] = molecular target: 468 kinases (Homo sapiens, UniProt Q00537); conditions: PCTK2; read-out: % Inhibition @ 100 nM
[25] = molecular target: 468 kinases (Homo sapiens, UniProt Q16566); conditions: CAMK4; read-out: % Inhibition @ 100 nM
[26] = molecular target: 468 kinases (Homo sapiens, UniProt Q9Y2K2); conditions: QSK; read-out: % Inhibition @ 100 nM
[27] = molecular target: 468 kinases (Homo sapiens, UniProt P00519, F317I); conditions: read-out: % Inhibition @ 100 nM
[28] = molecular target: 468 kinases (Homo sapiens, UniProt P35916); conditions: FLT4; read-out: % Inhibition @ 100 nM
[29] = molecular target: 468 kinases (Homo sapiens, UniProt P49759); conditions: CLK1; read-out: % Inhibition @ 100 nM
[30] = molecular target: 468 kinases (Homo sapiens, UniProt Q15759); conditions: p38-beta; read-out: % Inhibition @ 100 nM
[31] = molecular target: 468 kinases (Homo sapiens, UniProt Q8N5S9); conditions: CAMKK1; read-out: % Inhibition @ 100 nM
[32] = molecular target: 468 kinases (Homo sapiens, UniProt Q15835); conditions: GRK1; read-out: % Inhibition @ 100 nM
[33] = molecular target: 468 kinases (Homo sapiens, UniProt Q56UN5); conditions: YSK4; read-out: % Inhibition @ 100 nM

| SMILES | inhibition at 0.1 µM [1] | inhibition at 0.1 µM [2] | inhibition at 0.1 µM [3] | inhibition at 0.1 µM [4] | inhibition at 0.1 µM [5] | inhibition at 0.1 µM [6] | inhibition at 0.1 µM [7] | inhibition at 0.1 µM [8] | inhibition at 0.1 µM [9] | inhibition at 0.1 µM [10] | inhibition at 0.1 µM [11] | inhibition at 0.1 µM [12] | inhibition at 0.1 µM [13] | inhibition at 0.1 µM [14] | inhibition at 0.1 µM [15] | inhibition at 0.1 µM [16] | inhibition at 0.1 µM [17] | inhibition at 0.1 µM [18] | inhibition at 0.1 µM [19] | inhibition at 0.1 µM [20] | also measured |
| --- | --- | --- | --- | --- | --- | --- | --- | --- | --- | --- | --- | --- | --- | --- | --- | --- | --- | --- | --- | --- | --- |
| CCN(CC)CCNC(=O)c1c(C)[nH]c(/C=C2\C(=O)Nc3ccc(CCC(N)=O)cc32)c1C [Compound No. 16, (Z)-5-((5-(3-Amino-3-oxopropyl)-2-oxoindolin-3-ylidene)methyl)-N-(2-(diethylamino)ethyl)-2,4-dimethyl-1H-pyrrole-3-carboxamide] | 91.1% | 0% | 9% | 49% | 78% | 0% | 34% | 20% | 58% | 34% | 77% | 0% | 76% | 32% | 50% | 7% | 22% | 19% | 22% | 0% | inhibition at 0.1 µM [21]: 37%; inhibition at 0.1 µM [22]: 7%; inhibition at 0.1 µM [23]: 0%; inhibition at 0.1 µM [24]: 17%; inhibition at 0.1 µM [25]: 0%; inhibition at 0.1 µM [26]: 0%; inhibition at 0.1 µM ([27]; ABL1 (F317I)-phosphorylated): 31%; inhibition at 0.1 µM [28]: 56%; inhibition at 0.1 µM [29]: 90.7%; inhibition at 0.1 µM [30]: 0%; inhibition at 0.1 µM [31]: 28%; inhibition at 0.1 µM [32]: 37%; inhibition at 0.1 µM [33]: 98.2% |
| CCN(CC)CCNC(=O)c1c(C)[nH]c(/C=C2\C(=O)Nc3ccc(CCO)cc32)c1C [Compound No. 10, (Z)—N-(2-(Diethylamino)ethyl)-5-((5-(2-hydroxyethyl)-2-oxoindolin-3-ylidene)methyl)-2,4-dimethyl-1H-pyrrole-3-carboxamide] | 98% | 0% | 16% | 29% | 0% | 0% | 18% | 0% | 40% | 20% | 9% | 5% | 87% | 0% | 0% | 32% | 21% | 0% | 0% | 0% | inhibition at 0.1 µM [21]: 12%; inhibition at 0.1 µM [22]: 18%; inhibition at 0.1 µM [23]: 0%; inhibition at 0.1 µM [24]: 0%; inhibition at 0.1 µM [25]: 0%; inhibition at 0.1 µM [26]: 0%; inhibition at 0.1 µM ([27]; ABL1 (F317I)-nonphosphorylated): 8%; inhibition at 0.1 µM ([27]; ABL1 (F317I)-phosphorylated): 0%; inhibition at 0.1 µM [28]: 27%; inhibition at 0.1 µM [29]: 90.2%; inhibition at 0.1 µM [30]: 80%; inhibition at 0.1 µM [31]: 15%; inhibition at 0.1 µM [32]: 39%; inhibition at 0.1 µM [33]: 90.4% |

Source: patent US12435059B2, “AMP-activated protein kinase inhibitors and methods of making and using the same” (The Regents of the University of Colorado, priority 2019, dated 2025)
